Laboratory results: patent US20220267365A1, “NOVEL PHOSPHATE ESTER COMPOUND HAVING PYRROLOPYRIMIDINE SKELETON OR PHARMACEUTICALLY ACCEPTABLE SALT THEREOF” (TAIHO PHARMACEUTICAL CO., LTD., priority 2019, published 2022)

Key:
Type in all cases: cell-based
A431 = test: Test Example 4 growth suppression activity, CellTiter-Glo; conditions: A-431, 72 h; A431, Human epidermoid carcinoma, 3 days
Protocol: (§1) Human tumor cell lines different in type were suspended in mediums, seeded in individual wells of a multi-well plate and cultured. On the day after initiation of culture, serially diluted solutions of a compound were added. Culture was carried out for further 3 days. Cells were counted by a CellTiter-Glo (manufactured by Promega KK) in accordance with the protocol recommended by Promega KK. Cell viability was calculated in accordance with the equation shown below and the concentration (IC50 (nM)) of the compound at which 50% of cell growth is inhibited was obtained.
(§2) Cell viability (%)=(T/C)×100
(§3) T: Intensity of light emitted from a well containing a compound
(§4) C: Intensity of light emitted from a well containing no compound

A549 = test: as above; conditions: 72 h; A549, Human lung cancer, 3 days
Protocol: as §1, §2, §3, §4

H1650 = test: as above; conditions: NCI-H1650, 72 h; H1650, Human lung cancer, 3 days
Protocol: as §1, §2, §3, §4

H2122 = test: as above; conditions: NCI-H2122, 72 h; H2122, Human lung cancer, 3 days
Protocol: as §1, §2, §3, §4

H358 = test: as above; conditions: NCI-H358, 72 h; H358, Human lung cancer, 3 days
Protocol: as §1, §2, §3, §4

HCC827 = test: as above; conditions: 72 h; HCC827, Human lung cancer, 3 days
Protocol: as §1, §2, §3, §4

SK-BR-3 = test: as above; conditions: 72 h; SK-BR-3, Human breast cancer, 3 days
Protocol: as §1, §2, §3, §4

[1] = test system: human brain tumor cell line (U-87 MG); test: Test Example 8: combination use of compound and radiation, crystal violet cell viability; conditions: any order (same-day, compound first, radiation first), Student's t-test
Protocol: A human brain tumor cell line (U-87 MG) was suspended in a medium, seeded in individual wells of a multi-well plate and cultured. In the case where radiation exposure and addition of a compound are simultaneously carried out, both treatments were carried out on two days after initiation of culture. In the case where addition of a compound preceded radiation exposure, a serially diluted solution of a compound was added on the day after initiation of culture and radiation exposure was carried out on two days after initiation of culture. In the case where radiation exposure preceded addition of a compound, radiation exposure was carried out on the day after initiation of culture and a serially diluted solution of a compound was added on the two days after initiation of culture. Day 5 after seeding, cells were fixed with a 25% aqueous solution of glutaraldehyde and stained with a staining fluid (0.05 w/v % crystal violet in 20% methanol). After an extract (0.1 N NaH2PO4: 100% ethanol=1:1) was added and stirred, an absorbance at 540 nm was measured to obtain a cell count. The cell viability was calculated in accordance with the following equation and statistically processed in accordance with a Student's t-test.
as §2
T: Absorbance of a well exposed to radiation or containing a compound
C: Absorbance of a well neither exposed to radiation nor containing a compound

[2] = test system: human brain tumor cell line (U-87 MG); test: Test Example 9: combinational effect of compound and temozolomide (TMZ), crystal violet cell viability; conditions: any order (same-day, compound first, TMZ first), Student's t-test
Protocol: A human brain tumor cell line (U-87 MG) was suspended in a medium, seeded in individual wells of a multi-well plate and cultured. In the case where two compounds are simultaneously added, both compounds were added on two days after initiation of culture. In the case where addition of the compound of the present invention preceded, a serially diluted solution of the compound was added on the day after initiation of culture and a serially diluted solution of TMZ was added two days after initiation of culture. In the case where addition of TMZ preceded, a serially diluted solution of TMZ was added on the day after initiation of culture and a serially diluted solution of the compound was added on two days after initiation of culture. Day 5 after seeding, cells were fixed with a 25% aqueous solution of glutaraldehyde and stained with a staining fluid (0.05 w/v % crystal violet in 20% methanol). After an extract (0.1 N NaH2PO4:100% ethanol=1:1) was added and stirred, an absorbance at 540 nm was measured to obtain a cell count. The cell viability was calculated in accordance with the following equation and statistically processed in accordance with a Student's t-test.
as §2
T: Absorbance of a well containing TMZ or a compound
C: Absorbance of a well containing neither TMZ nor a compound

Molecule `Nc1ncnc2c1c(I)cn2[C@@H]1O[C@H](CO)[C@@H](O)[C@@H]1F` [Comparative Example 2, (2R,3R,4S,5R)-5-(4-amino-5-iodo-7H-pyrrolo[2,3-d]pyrimidin-7-yl)-4-fluoro-2-(hydroxymethyl) tetrahydrofuran-3-ol] has an IC50 (A431) of 18 nM, an IC50 (A549) of 14 nM and an IC50 (H1650) of 8 nM. For the same molecule, the IC50 (H2122) was 9 nM, the IC50 (H358) was 52 nM and the IC50 (HCC827) was 176 nM. For the same molecule, the IC50 (SK-BR-3) was 23 nM, the “cell viability, combination treatment with radiation exposure compared to the single treatments” value [1] was “significantly decreased” and the “cell viability, combination treatment with TMZ compared to the single treatments” value [2] was “significant decrease”.
